# Experiments:
# pea pericarp = experiment: Split-pericarp assay: growth of deseeded pea pericarps attached to the plant; format: in vivo, Pisum sativum
# Text: In addition to GAs, developing pea seeds and pericarps contain two auxins, 4-chloroindole-3-acetic acid (4-Cl-IAA) and indole-3-acetic acid (IAA) (Magnus et al. 1997). A split-pericarp assay where test compounds are applied to the inner wall of split and deseeded pericarps that are still attached to the plant has been developed to examine the effects of exogenously applied growth substances on pericarp growth.
# (§1) During early pea fruit growth, the physiological roles of 4-chloroindole-3-acetic acid (4-Cl-IAA) and IAA, both natural pea auxins, in regulating gibberellin (GA) 20-oxidase gene expression (PsGA20ox1) were tested with 4-position, ring-substituted auxins that have a range of biological activities (fruit growth). The effect of seeds, and natural and synthetic auxins (4-Cl-IAA, and IAA; 4-Me-IAA, 4-Et-IAA and 4-F-IAA, respectively), and auxin concentration (4-Cl-IAA) on PsGA20ox1 mRNA levels in pea pericarp were investigated over a 24 h treatment period. The ability of certain 4-substituted auxins to increase PsGA20ox1 mRNA levels in deseeded pericarp was correlated with their ability to stimulate pericarp growth.
# wheat 'Harvest HRS' = experiment: Wheat field experiment (Table W1); format: in vivo, Triticum aestivum; conditions: 1×10^−5 M
# Method: The wheat (Triticum aestivum) cultivar Harvest HRS was seeded on May 20, 2011 with a target of 250 seedlings per m^2 into a field plot located at the St. Albert Field-Research Station of the University of Alberta, St. Albert, Alberta, Canada that was seeded with canola the previous season. Eight 2×4 m plots were cut out of a larger field plot with a mower producing two rows of four 2×4 m plots with a 1 m buffer between each plot and 4 m between the 4-plot rows. The hormone treatments were randomly assigned to the 2×4 plots. Aqueous solutions of 4-ME-IAA at 1×10^−5 M in 0.1% (v/v) Tween 80 or control solutions (0.1% [v/v]Tween 80) were sprayed Jul. 15, 2011 in slightly breezy (8 km/h), overcast weather, temperature 16° C. Three hours later, the sun emerged and the ambient temperature rose from 16° C. to 21° C. The relative humidity at the time of spraying was 75%. On average, 15% of the plants in the plots had their first florets open at the time of hormone application. A separate Chapin 20000-type 4 L pneumatic sprayer was used for applying the 4-ME-IAA and the control solutions; each sprayer was equipped with a medium-delivery blue fan nozzle designed to deliver 1.4 L per minute at the normal operating pressure of 40 PSI. Each plot was sprayed with a total of 0.91 L of solution to obtain uniform coverage.
# [1] = test system: PsGA20ox1, PsGA3ox1, PsGA2ox1; experiment: GA biosynthesis/catabolism gene expression in pea pericarp; format: in vivo, Pisum sativum; conditions: 24 h treatment period
# Method: as §1
# [2] = test system: Pisum sativum L. cv. Carneval; experiment: Field study, seed yield of pea 'Carneval' (Table P1); format: in vivo; conditions: for Seed yield per 1 meter row: sprayed at about 5% first flower
# Text: In a field study, pea (Pisum sativum L. cv. Carneval) seed with a germination rate assessed at greater than 95% was planted on May 11, 2011 into black-loam soil that had been clean-cultivated for two previous growing seasons located at the Edmonton Research Station (ER31) of the University of Alberta, Edmonton, Alberta, Canada. The treatment plots measured 2 m wide by 3 m long, comprising rows 50 cm apart. The seeds were precision-drilled by hand at 5 cm intervals in each row. At the time of seeding, fresh TagTeam® granular rhizobial inoculant was drilled with the seed at the rate of 1.11 g per 6 m^2. No herbicides or pesticides were used during this study and plots were manually weeded to maintain weed-free plots. Seed emergence began on May 26, 2011 (15 days post-planting) due to cool temperature conditions after planting. Precipitation during the growing season was within the regional average. The treatments consisted of one application of aqueous 4-methyl-indole-3-acetic acid (4-ME-IAA) solutions at 1×10^−6M, 1×10^−5M, 5×10^−5M, or 1×10^−4M in 0.1% (v/v) Tween 80, or an aqueous control solution (0.1% [v/v] Tween 80) applied to the plants on Jul. 10, 2011, when about 5% of the plants were in first flower (1 treatment per plot; 5 treatments/plots total). A separate Chapin 20000-type 4 L pneumatic sprayer was used for applying each treatment solution; each sprayer was equipped with a medium-delivery blue fan nozzle designed to deliver 1.4 L per minute at the normal operating pressure of 40 PSI. Each plot was sprayed with a total of 0.7 L of solution to obtain uniform coverage. At the time of spraying, the mean day temperature was 15.9° C., the mean wind speed was 7 km/h, the relative humidity was 86%, and the sky was overcast. Harvesting (by hand) took place Aug. 27 to 30, 2011 after the plants had desiccated naturally. The pods were further dried for six days in a forced-air drier at 30° C. prior to obtaining seed weights. Each plot was harvested in eight groups of 20 contiguous plants arranged so that each group (1 m section of row) had at least two plants immediately next to it at each end. The treatment replication unit was 20 contiguous plants as diagramed in Figure P1. As the between-row spacing was 50 cm, the yield from each group represented that from 0.5 m^2
# [3] = At maturity, 20 spikes per plot
compound,measurement,setting,value
"Cc1cccc2[nH]cc(CC(=O)O)c12 [4-ME-IAA, 4-methyl-indole-3-acetic acid]",pericarp growth (biological activity),pea pericarp,second most biologically active auxin
same,increase in seed number per floral spike,wheat 'Harvest HRS',10%
same,increase in seed weight per floral spike,wheat 'Harvest HRS',12%
same,Seed number per spike,wheat 'Harvest HRS'; At maturity,27.5 ± 1.3
same,Seed weight per spike,wheat 'Harvest HRS'; At maturity,1.03 ± 0.05 g
same,Total seed number,wheat 'Harvest HRS'; [3],550.8 ± 26.6
same,Total seed weight,wheat 'Harvest HRS'; [3],20.6 ± 1.1 g
same,Number of spikes per plant,wheat 'Harvest HRS'; Pre-harvest,3.825 ± 0.207
same,Plant height,wheat 'Harvest HRS'; Pre-harvest,94.5 ± 0.4 cm
same,PsGA20ox1 mRNA levels in deseeded pericarp,[1],second most active auxin
same,increase in seed yield vs control,[2]; 1×10^−4 M,28%
same,Seed yield per 1 meter row,[2]; 1×10^−4 M,123.20 ± 9.19 g
same,Seed yield per 1 meter row,[2]; 1×10^−5 M,105.63 ± 10.72 g
same,increase in seed yield vs control,[2]; 1×10^−6 M,43%
same,Seed yield per 1 meter row,[2]; 1×10^−6 M,137.84 ± 10.16 g
same,Seed yield per 1 meter row,[2]; 5×10^−5 M,78.85 ± 12.06 g
